The values that follow come from publication PMC12612594, “Nuclear Magnetic Resonance‐based fragment screen of the E3 ligase Fem‐1 homolog B” (Protein Science : A Publication of the Protein Society, 2025).

In one test the test system is recombinant mouse FEM1B. Also on record: method as in Henning et al., [2022]. The following applies: TAMARA‐FNIP1 degron, ref Henning et al., [2022], read-out: 50% inhibitory concentration (IC50); cited from earlier work.
Test [1] has as its system FEM1B. Also on record: method as in Henning et al., [2022]. The following applies: ref Henning et al., [2022]; cited from earlier work.
Another test deals with FEM1B‐12 (Homo sapiens, UniProt Q9UK73). The test is described as follows: NMR titration (1H-13C-methyl SOFAST HMQC) of fragments. The format is binding. The following applies: for Kd: fragment 0.0625–2 mM, 100 μM 13C-methyl labeled FEM1B‐12, 310 K, Hill's equation model, read-out: Kd (dissociation constant by NMR titration); for higher affinity than the reference molecule VU0417412: ratio of KD values vs VU0417412. As for the experimental part: Using ^1H‐^13C‐methyl SOFAST HMQC NMR, 4608 structurally diverse fragments were prepared as 12‐fragment mixtures at the concentration of 800 μM per compound and screened against 100 μM FEM1B‐12. The spectra of FEM1B in the presence of the fragment mixtures were compared to the spectrum of ligand‐free FEM1B to identify fragment hits. Twelve‐fragment mixture hits were subsequently deconvoluted by testing individual fragments for binding. In total, 18 fragment hits were identified ([…]) in the screen. Three chemical shift patterns were observed among the 18 fragment hits (Figure 2), with pattern three having two sub‐patterns with the same residues shifting in different directions. […] The dissociation constants of the fragments were determined by NMR titration using fragment concentrations ranging from 0.0625 to 2 mM (Figure 2) (Henning et al., [2022]).
All ^15N‐TROSY NMR experiments were carried out at 310 K using a 900 MHz Bruker Avance III spectrometer equipped with a TXI/TCI CryoProbe and a Bruker SampleJet. All 1H‐13C‐SOFAST HMQC NMR experiments were carried out at 310 K using a 600 MHz Bruker AV‐III‐600 Spectrometer with a TCI CryoProbe and a Bruker SampleJet. Two‐dimensional ^1H‐^15 TROSY spectra of 150 μM FEM1B‐12 and ^1H‐^13C‐SOFAST HMQC spectra of 100 μM FEM1B‐12 were recorded using 30‐min acquisition times and analyzed using Topspin 4.1.4 (Bruker).
HMQC titration experiments were used to determine binding affinity of the fragment hits identified from the screen. The changes in ^1H‐^13C chemical shifts of selectively labeled sidechain resonances upon the addition of increasing concentrations of the fragments (0.0625–2 mM) were analyzed. The binding affinities (KDs) of the fragments were calculated using the Hill's equation model in Prism 10 (GraphPad).

In test [2] the test system is FEM1B. Put plainly: LC-coupled tandem mass spectrometry, site of covalent attachment. The format is binding. The following applies: FEM1B incubated with five times the concentration of compound for 48 h, trypsin digest, LC-MS/MS. As for the experimental part: To assess the potential for covalent binding of VU0416476 to FEM1B, we used LC‐coupled tandem mass spectrometry to identify the site of covalent attachment. After FEM1B was incubated with five times the concentration of VU0416476 for 48 h, the protein was digested with sequencing‐grade trypsin, and peptides were analyzed by LC‐MS/MS.
FEM1B incubated with five times the concentration of VU0416476 were brought to a final concentration of 5% SDS, reduced with 20 mM DTT at 55°C for 20 min, and alkylated with 40 mM iodoacetamide for 30 min in the dark at room temperature. The samples were then prepared for digestion on S‐Trap™ micro spin columns (ProtiFi) following the manufacturer's instructions. Aqueous phosphoric acid was added to a final concentration of 2.5%, followed by the addition of 90% methanol containing 100 mM TEAB (S‐Trap binding/wash buffer) at 6× the volume. Samples were loaded onto S‐Trap columns and centrifuged at 4000g. Columns were washed four times with binding/wash buffer. […] Eluted peptides were dried in a speed‐vac concentrator, reconstituted in aqueous 0.2% formic acid, and analyzed by LC‐coupled tandem mass spectrometry (LC–MS/MS) using similar methods to those described in the work of Howard et al. ([2024]). […] Peptides were eluted at a flow rate of 350 nL/min, using a 90‐min gradient, and were analyzed on an Orbitrap Exploris 480 mass spectrometer (Thermo Scientific). […]

Sequence of FEM1B‐12 (Q9UK73 1-356): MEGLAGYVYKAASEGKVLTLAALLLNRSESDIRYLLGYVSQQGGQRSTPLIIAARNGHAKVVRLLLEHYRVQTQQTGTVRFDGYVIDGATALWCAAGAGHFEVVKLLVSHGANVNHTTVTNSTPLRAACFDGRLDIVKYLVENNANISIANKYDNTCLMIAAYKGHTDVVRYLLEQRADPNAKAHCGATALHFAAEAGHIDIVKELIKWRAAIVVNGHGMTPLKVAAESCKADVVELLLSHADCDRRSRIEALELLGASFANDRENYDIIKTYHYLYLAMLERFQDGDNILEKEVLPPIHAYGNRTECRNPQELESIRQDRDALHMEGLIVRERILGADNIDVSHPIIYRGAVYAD

For the compound `N#CCCN(C(=O)CCl)c1ccc2c(c1)OCCO2` [EN106], the IC50 with recombinant mouse FEM1B is 2200 nM. In addition, in the test with FEM1B [1], the “site of covalent binding” value was “covalently bind to Cys186”. As to `CC(=O)c1cccc(NC(=O)c2cccs2)c1` [VU0013947], at FEM1B‐12, the Kd was found to be 80 µM and the “higher affinity than the reference molecule VU0417412” value stood at 3.5 ×. As to `CC(C)(C)N1C(=O)c2ccc(C(=O)O)cc2C1=O` [VU0023775], the Kd at FEM1B‐12 was found to be 960 µM.

Regarding `O=C(O)c1cccc(N2CCCC2=O)c1` [VU0081201], the Kd at FEM1B‐12 came out at 1130 µM.

For `COCc1ccc(NC(=O)c2cccs2)cc1` [VU0175318], on FEM1B‐12, the Kd was 100 µM and the “higher affinity than the reference molecule VU0417412” value was 2.8 ×.

As for `CC(C)c1ccc(NC(=O)c2cnccn2)cc1` [VU0412674], the Kd at FEM1B‐12 came to 260 µM. On to `CC(C)(C)n1ncc(Cl)c(Cl)c1=O` [VU0416476], for which the “site of covalent attachment” value with FEM1B [2] is on record as “covalently binds to Cys186”. In the case of `O=C(Nc1ccc(F)cc1)c1cccs1` [VU0417412], on FEM1B‐12, the Kd was 280 µM.
